Results reported in ChEMBL document CHEMBL1131200, “Bis-quinolinium cyclophanes: 6,10-diaza-3(1,3),8(1,4)-dibenzena-1,5(1,4)- diquinolinacyclodecaphane (UCL 1684), the first nanomolar, non-peptidic blocker of the apamin-sensitive Ca(2+)-activated K+ channel” (J Med Chem, 1998).

Experiments:
Rattus norvegicus [1] = organism: Rattus norvegicus; test: The ratio of the conc of compound to dequalinium to cause 50% inhibition of the after hyperpolarization (AHP) in cultured rat sympathetic neurones; type: functional, Sympathetic neuron
Rattus norvegicus [2] = organism: Rattus norvegicus; test: Compound was tested for SKCa blocking action by measuring its ability to inhibit after hyperpolarization (AHP) in cultured rat sympathetic neurones; type: functional; details: Sympathetic neuron

Structure (SMILES) | EMR (Rattus norvegicus [1]) | IC50 (Rattus norvegicus [2])
c1cc2cc(c1)C[n+]1ccc(c3ccccc31)NCc1ccc(cc1)CNc1cc[n+](c3ccccc13)C2 | 0.01 | 3 nM
c1ccc2c(c1)c1cc[n+]2Cc2ccc(cc2)Cc2ccc(cc2)C[n+]2ccc(c3ccccc32)NCc2ccc(cc2)Cc2ccc(cc2)CN1 | 0.31 | 260 nM
c1cc2cc(c1)CNc1cc[n+](c3ccccc13)Cc1ccc(cc1)C[n+]1ccc(c3ccccc31)NC2 | 0.18 | 70 nM
c1ccc2c(c1)c1cc[n+]2Cc2ccc(cc2)-c2ccc(cc2)C[n+]2ccc(c3ccccc32)NCc2ccc(cc2)Cc2ccc(cc2)CN1 | 0.26 | 150 nM
c1cc2cc(c1)CNc1cc[n+](c3ccccc13)Cc1cccc(c1)C[n+]1ccc(c3ccccc31)NC2 | 0.22 | 130 nM
c1ccc2c(c1)c1cc[n+]2Cc2ccc(cc2)C[n+]2ccc(c3ccccc32)NCc2ccc(cc2)CN1 | 0.05 | 28 nM
c1ccc2c(c1)c1cc[n+]2Cc2ccc(cc2)Cc2ccc(cc2)C[n+]2ccc(c3ccccc32)NCc2ccc(cc2)-c2ccc(cc2)CN1 | 0.8 | 280 nM
Cc1cc(N)c2ccccc2[n+]1CCCCCCCCCC[n+]1c(C)cc(N)c2ccccc21.[Cl-].[Cl-] [DEQUALINIUM CHLORIDE] | 1 | 570 nM
